Assay results taken from PMC8306930, “A Comparative Analysis of the In Vitro Anticancer Activity of Iridium(III) {η^5-C5Me4R} Complexes with Variable R Groups” (International Journal of Molecular Sciences, 2021).

Columns and labels:
[1] = system: A2780 human ovarian cancer cells; assay: MTT viability assay, A2780; assay type: cell-based; details: A2780, 72 h exposure, mean ± SD
Excerpt: (§1) The rat astrocytoma C6 cell line and murine melanoma B16 cell line were kindly gifted by Dr. L. Harhaji–Trajkovic, Institute for Biological Research “Sinisa Stankovic”—National Institute of Republic of Serbia (IBISS), and from Dr. Sinisa Radulovic (Institute for Oncology and Radiology of Serbia), respectively. Human colorectal (SW620 and HCT116), breast (MCF-7), and ovarian (A2780) cancer cell lines and non-malignant fibroblast cell line (MRC5) were purchased from the American Type Culture Collection (ATCC, Manassas, Virginia, USA). […] For viability assays, cells were seeded in listed densities/well: B16 and C6: 3 × 10^3; SW620: 9 × 10^3; A2780 and HCT116: 5 × 10^3; MCF-7: 8 × 10^3 and MRC5: 7 × 10^3. For flow cytometry, A2780 cells were seeded at 2 × 10^5 density/well in 6-well plates. Peritoneal macrophages were collected from the peritoneal cavity of C57BL/6 mice from the animal facility of IBISS by cavity lavage with ice-cold PBS. […] Macrophages were counted, seeded at 2 × 10^5 cells/well in 96-well plates for viability assay, and then left for 2 h to adhere. Before treatment, non-adherent cells were removed. The handling of animals and protocol for obtaining macrophages is in the agreement with the rules of the European Union and approved by the Institutional Animal Care and Use Committee at IBISS (No. 02-09/16).
(§2) Stock solutions of 1b, 1c, 1d, and 1e were prepared in ethanol at concentration of 20 mM and kept at −20 °C, while 10 mM stock solution of cisplatin was prepared in DMF just before the usage. Desired final concentrations were obtained by dilution in culture medium.
(§3) Cells were treated with various concentrations (up to 50 or 100 µM) of the above-mentioned complexes for 72 h. For the detection of mitochondrial respiration, cells were cultivated in the presence of MTT staining solution (0.5 mg/mL) for approximately 1 h at 37 °C. The dye was then discarded, and the formed formazan crystals (purple) were dissolved in DMSO. For an evaluation of viable attached cells, cells were fixed with 4% PFA for 10 min at room temperature, and subsequently stained for 15 min with 0.02% CV solution. […] The absorbance was measured with an automated microplate reader at 540 nm, with a reference wavelength of 670 nm. The IC50 values were calculated using a four-parameter logistic function and presented as mean ± SD from three independent experiments.

[2] = system: MCF-7 human breast cancer cells; assay: MTT viability assay, MCF-7; assay type: cell-based; details: MCF-7, 72 h exposure, mean ± SD
Excerpt: as §1, §2, §3

A2780 cells [3] = assay: ROS/RNS, DHR123 flow cytometry; assay type: cell-based, human; details: A2780, IC50 doses, 48 h, DHR123, with respect to untreated cultures
Method: (§4) Experiments were carried out in three independent replicates.

A2780 cells [4] = assay: Autophagosomes, acridine orange flow cytometry; assay type: cell-based, human; details: A2780, IC50 doses, 48 h, AO
Method: as §4

A2780 cells [5] = assay: Cell proliferation, CFSE flow cytometry; assay type: cell-based, human; details: A2780, IC50 doses, 72 h of incubation
Method: as §4

C6 rat glioma cells [6] = assay: CV viability assay, C6; assay type: cell-based; details: C6, 72 h exposure, mean ± SD
Excerpt: as §1, §2, §3

B16 mouse melanoma cells [7] = assay: CV (crystal violet) viability assay, B16; assay type: cell-based; details: B16, 72 h exposure, mean ± SD
Excerpt: as §1, §2, §3

A2780 cells [8] = details: A2780, IC50 doses, 48 h, AnnV/PI
Method: as §4

[9] = system: SW620 human colorectal adenocarcinoma cells; assay: CV viability assay, SW620; assay type: cell-based; details: SW620, 72 h exposure, mean ± SD
Excerpt: as §1, §2, §3

A2780 cells [10] = assay: Mitochondrial membrane potential, DiOC6(3) flow cytometry; assay type: cell-based, human; details: A2780, IC50 doses, 24 h, in comparison with untreated cells
Method: as §4

C6 rat glioma cells [11] = assay: MTT viability assay, C6; assay type: cell-based; details: C6, 72 h exposure, mean ± SD
Excerpt: as §1, §2, §3

[12] = system: HCT116 human colorectal carcinoma cells; assay: CV viability assay, HCT116; assay type: cell-based; details: HCT116, 72 h exposure, mean ± SD
Excerpt: as §1, §2, §3

A2780 cells [13] = assay: Senescence, FDG assay of beta galactosidase activity, flow cytometry; assay type: cell-based, human; details: A2780, IC50 doses, 48 h, in comparison to the control
Method: as §4

[14] = system: MRC5 human fibroblast cells; assay: MTT viability assay, MRC5; assay type: cell-based; details: MRC5, 72 h exposure, mean ± SD
Excerpt: as §1, §2, §3

[15] = system: MRC5 human fibroblast cells; assay: CV viability assay, MRC5; assay type: cell-based; details: MRC5, 72 h exposure, mean ± SD
Excerpt: as §1, §2, §3

[16] = system: SW620 human colorectal adenocarcinoma cells; assay: MTT viability assay, SW620; assay type: cell-based; details: SW620, 72 h exposure, mean ± SD
Excerpt: as §1, §2, §3

B16 mouse melanoma cells [17] = assay: MTT viability assay, B16; assay type: cell-based; details: B16, 72 h exposure, mean ± SD
Excerpt: as §1, §2, §3

[18] = system: primary mouse peritoneal cells; assay: Viability of primary mouse peritoneal cells (macrophages); assay type: cell-based
Excerpt: The rat astrocytoma C6 cell line and murine melanoma B16 cell line were kindly gifted by Dr. L. Harhaji–Trajkovic, Institute for Biological Research “Sinisa Stankovic”—National Institute of Republic of Serbia (IBISS), and from Dr. Sinisa Radulovic (Institute for Oncology and Radiology of Serbia), respectively. Human colorectal (SW620 and HCT116), breast (MCF-7), and ovarian (A2780) cancer cell lines and non-malignant fibroblast cell line (MRC5) were purchased from the American Type Culture Collection (ATCC, Manassas, Virginia, USA). […] For viability assays, cells were seeded in listed densities/well: B16 and C6: 3 × 10^3; SW620: 9 × 10^3; A2780 and HCT116: 5 × 10^3; MCF-7: 8 × 10^3 and MRC5: 7 × 10^3. For flow cytometry, A2780 cells were seeded at 2 × 10^5 density/well in 6-well plates. […] Macrophages were counted, seeded at 2 × 10^5 cells/well in 96-well plates for viability assay, and then left for 2 h to adhere. […]
Cells were treated with various concentrations (up to 50 or 100 µM) of the above-mentioned complexes for 72 h. […] The absorbance was measured with an automated microplate reader at 540 nm, with a reference wavelength of 670 nm. The IC50 values were calculated using a four-parameter logistic function and presented as mean ± SD from three independent experiments.

[19] = system: MCF-7 human breast cancer cells; assay: CV viability assay, MCF-7; assay type: cell-based; details: MCF-7, 72 h exposure, mean ± SD
Excerpt: as §1, §2, §3

[20] = system: A2780 human ovarian cancer cells; assay: CV viability assay, A2780; assay type: cell-based; details: A2780, 72 h exposure, mean ± SD
Excerpt: as §1, §2, §3

[21] = system: HCT116 human colorectal carcinoma cells; assay: MTT viability assay, HCT116; assay type: cell-based; details: HCT116, 72 h exposure, mean ± SD
Excerpt: as §1, §2, §3

A2780 cells [22] = assay: Intracellular nitric oxide, DAF-FM flow cytometry; assay type: cell-based, human; details: A2780, IC50 doses, 48 h, with respect to untreated cultures
Method: as §4

[23] = Stability in RPMI-1640 cell culture medium by UV-Vis; assay type: physicochemical; details: 37 °C, 24 h
[24] = Stability in D2O mixtures by 1H NMR; assay type: physicochemical; details: DMSO-d6/D2O 2:1, 72 h at 37 °C, 1H NMR, dimethyl sulfone standard
Method: Complexes were dissolved in acetone-d6/D2O 2:1 (1b,d), DMSO-d6/D2O 2:1 (2a–d and 3), or methanol-d4/D2O 2:1 (1c) ([Ir] ≈ 10^−3 mol L^−1), then dimethyl sulfone (0.05 mL, 0.164 mmol) was added as internal standard. The mixtures were filtered through a celite pad, and the filtrated solutions were analyzed by ^1H NMR spectroscopy.
The solutions were then stored for 72 h at 37 °C, and new NMR analyses were subsequently performed.

[25] = Octanol/water partition coefficient, shake-flask method with UV-Vis; details: 21 °C, mean ± standard deviation
Method: (a) Octanol/water partition coefficients (Log Pow). Partition coefficients (Pow; IUPAC: KD partition constant), defined as Pow = corg/caq, where corg and caq are molar concentrations of the selected compound in the organic and aqueous phase, respectively, were determined by the shake-flask method and UV-Vis measurements. Deionized water and 1-octanol were vigorously stirred for 24 h, to enable saturation of both phases, then separated by centrifugation. A stock solution of the selected iridium compound (ca. 2 mg) was prepared by first adding acetone (50 μL, to help solubilization), followed by water-saturated octanol (2.5 mL). The solution was diluted with water-saturated octanol (ca. 1:3 v/v ratio, cIr ≈ 10^−4 M, so that 1.5 ≤ A ≤ 2.0 at λmax) and its UV-Vis spectrum was recorded (A^0org). An aliquot of the solution (Vorg = 1.2 mL) was transferred into a test tube and octanol-saturated water (Vorg = Vaq = 1.2 mL) was added. The mixture was vigorously stirred for 30 min at 21 °C then centrifuged (5000 rpm, 5 min). The UV-Vis spectrum of the organic phase was recorded (A^forg) and the partition coefficient was calculated as Pow = A^forg/(A^0org − A^forg) where A^0org and A^forg are the absorbance in the organic phase before and after partition with the aqueous phase, respectively. The wavelength of the maximum absorption of each compound (ca. 300 nm) was used for UV-Vis quantitation.

Compound	IC50 [1] [µM]	IC50 [2] [µM]	Increase of intracellular levels of H2O2, HOCl and ONOO− (in total) (A2780 cells [3]) [%]	High percentage of autophagosomes (A2780 cells [4])	Effect on cell proliferation (A2780 cells [5])	IC50 (C6 rat glioma cells [6]) [µM]	IC50 (B16 mouse melanoma cells [7]) [µM]	Induction of apoptotic cell death (A2780 cells [8])	IC50 [9] [µM]	Mitochondrial membrane hyperpolarization (A2780 cells [10]) [%]	IC50 (C6 rat glioma cells [11]) [µM]	IC50 [12] [µM]	Increase of beta galactosidase activity (A2780 cells [13]) [%]	IC50 [14] [µM]	IC50 [15] [µM]	IC50 [16] [µM]	IC50 (B16 mouse melanoma cells [17]) [µM]	IC50 [19] [µM]	IC50 [20] [µM]	IC50 [21] [µM]	also measured
tetramethylcyclopentadienyl)(2-phenylpyridine)iridium(III)chloride [Complex 2b]	5.5 ± 0.5	8.6 ± 0.2	46.4	not recognized	inhibition of cell proliferation	2.6 ± 0.1	3 ± 0.1	modest induction	2.9 ± 0.5	32.3	2.4 ± 0.3	7 ± 2	38.4	6.7 ± 0.2	6 ± 2	2.6 ± 0.1	2.5 ± 0.2	37 ± 3	4.4 ± 0.6	8 ± 0.2	Effect on viability of primary mouse peritoneal cells [18]: did not affect viability; Increase of intracellular level of NO (A2780 cells [22]): 40.9%
Cc1c(C)c(C)[c-](-c2ccc(F)cc2)c1C.[Cl-].[Ir+3].[c-]1ccccc1-c1ccccn1 [Complex 2d, (1-(4-fluorobenzene)-2,3,4,5-tetramethylcyclopentadienyl)(2-phenylpyridine)iridium(III)chloride]	1.3 ± 0.1	2.5 ± 0.2	36.3	not recognized	inhibition of cell proliferation	2.1 ± 0.1	1.7 ± 0.4	modest induction	2 ± 0.2	48.6	2 ± 0.01	5.3 ± 1.3	31	2.4 ± 0.3	2.1 ± 0.6	2 ± 0.1	1.2 ± 0.2	6.8 ± 0.7	1.8 ± 0.1	1.3 ± 0.3	Stability in RPMI-1640 cell culture medium [23]: did not change; Effect on viability of primary mouse peritoneal cells [18]: did not affect viability; Fraction of unaltered compound [24]: 97%; Log Pow [25]: 1.3 ± 0.2; Increase of intracellular level of NO (A2780 cells [22]): 38%
CCC[c-]1c(C)c(C)c(C)c1C.[Cl-].[Ir+3].[c-]1ccccc1-c1ccccn1 [Complex 2c, (1-(propyl)-2,3,4,5-tetramethylcyclopentadienyl)(2-phenylpyridine)iridium(III)chloride]	7.3 ± 0.6	12 ± 1.3				5.9 ± 0.5	8 ± 2		12.4 ± 1.5		4 ± 0.3	13 ± 1.1		3.7 ± 0.2	2.7 ± 0.1	10.4 ± 0.4	6.7 ± 0.6	17.2 ± 0.1	7.2 ± 0.8	8 ± 0.6	Stability in RPMI-1640 cell culture medium [23]: did not change; Fraction of unaltered compound [24]: 98%; Log Pow [25]: 1.5 ± 0.2
